Columns and labels:
DCAF10 [1] = assay: Peptide pull-down with quantitative MS, mouse liver lysate, DCAF10; assay type: binding
Protocol: Biotinylated 10-mer Nt-peptides (Nt-free, Nt-acetylated, and, where indicated, Nt-myristoylated; sequences in Supplementary Table 1) were synthesized with a C-terminal Lys3 spacer and biotin, immobilized on magnetic streptavidin beads, and incubated with HeLa or mouse liver lysates. After standardized washes, bound proteins were on-bead reduced/alkylated, digested with LysC/trypsin, desalted, and analysed by LC-MS in DIA mode (Orbitrap Exploris 480) as described previously[24]. Variants included endogenous Nt-sequences, swap and mutant (Ala-Ala-Ala or Nt-amino acids) peptides, and pairwise comparisons of conditions of interest.
Briefly, magnetic streptavidin beads (DynabeadsTM
Beads were then washed three times with PBS.
210 washing, 1 mg of HeLa lysates or 2 mg of liver lysates was taken, and lysis buffer (75
Lysates were incubated with streptavidin
HeLa pull-downs were washed twice with lysis buffer and twice
Liver pulldowns were washed twice with cold low salt buffer (50 mM
220 individually ventilated cages under a 12-h light/dark cycle and were provided with sterile
No animal procedures were performed specifically for this
230 of 1:100), and desalted/concentrated on C18 reversed phase stage tips as previously
(§1) 526 Mass spectrometry measurements and raw file processing
527 Samples (peptide pull-downs, IPs and high-pH fractionations) were separated on an […]

[2] = tested on: DLD-1 Flp-In T-REx and Lyn KO cells; assay: Level of Lyn / Lyn-GFP variants after NMT1/2 and DCAF10 siRNA, Western blot; assay type: cell-based, human
From the text: To further investigate the role of the Nt-amino acid and its modification in DCAF10 recognition and DCAF10-dependent ubiquitination, we used the CRISPR/Cas9 technique to knock out Lyn in DLD-1 cell lines with T-REx Flp-In background (DLD-1 Lyn KO Flp-In T-REx) (Supplementary Fig. 7a–c). We then integrated Lyn^WT-GFP and two Nt-mutants (Lyn^G2A-GFP and Lyn^G2P-GFP) under a doxycycline-inducible promoter into the Flp-In cassette. Alanine (G2A) is expected to be efficiently acetylated by NatA, generating an Nt-acetylated Lyn mutant. Conversely, the proline (G2P) mutant, is expected not to be acetylated and may retain a free N-terminus[3],[36],[37]. Doxycycline-induced expression of Lyn^WT-GFP, Lyn^G2A-GFP, and Lyn^G2P-GFP was confirmed by Western blot, MS, and fluorescence microscopy (Supplementary Figs. 7d, e; 8a and Supplementary Data 6). While all constructs were ~2–5-fold higher expressed than endogenous Lyn, G2A and G2P were further elevated relative to WT, which may reflect increased stability when Nt-Gly/acetylation is altered (Supplementary Fig. 7e). […] Lyn^WT-GFP mirrored the behavior of endogenous Lyn under NMT1/2 siRNA treatment. Lyn levels decreased with NMT1/2 KD, but were rescued when siRNAs targeting both NMT1/2 and DCAF10 were applied (Fig. 6a, b). […] The weaker reduction of Lyn^WT-GFP may result from Lyn overexpression and the limiting availability of DCAF10.
Fig. 6 N-terminal glycine mutation abolishes DCAF10-dependent stability and ubiquitination. a DLD-1 Flp-In T-REx cells and Lyn KO cells expressing Lyn^WT-GFP, Lyn^G2A-GFP, or Lyn^G2P-GFP were induced for 24 h with 100 ng/mL doxycycline. Cells were treated with NMT1/2 siRNA, DCAF10 siRNA, or both (or left untreated) for 72 h. Representative WBs are shown. Filled circles represent siRNA treatment, empty circles untreated. b WB quantifications of Lyn levels normalized to vinculin. Purple: untreated with NMT1/2 siRNA; blue: treated with NMT1/2 siRNA. Mean ± s.d. with individual data points are shown (n = 3 independent biological replicates). c Schematic of ubiquitination experiments. Created in BioRender. […] Lysates have been treated with NMT1/2 RNAi for 72 h. i Quantification of in vitro ubiquitination assays. Mean ± s.d. with individual data points are shown (n = 3 independent ubiquitination assays). Volcano plots of Lyn-GFP^WT binding partners: j NMT1/2 siRNA ± doxycycline (Dox); k Control ± doxycycline; l NMT1/2 siRNA vs. control both with doxycycline. The −log10 adjusted p-value (two-sided Student’s t test with permutation-based multiple-testing correction; y-axis) is plotted against the log2 fold change (x-axis). Threshold for significance: −log10 p-value ≥ 1.3 (p ≤ 0.05), log2 fold change ≤ −1 or ≥ 1. DCAF10 and Lyn-GFP are marked in green, significant binding partners in purple and in blue, respectively. Source data are provided as a Source data file.
DLD-1 Lyn knockout (KO) Flp-In T-REx cells were generated by CRISPR/Cas9 electroporation using two guide RNAs targeting the LYN locus. Editing and clone validation were confirmed by genomic sequencing, Western blotting, and MS[51]. Stable cell lines expressing doxycycline-inducible Lyn-GFP (WT, G2A, or G2P) were established by FRT/Flp-mediated recombination and validated by antibiotic selection, Western blotting, and fluorescence microscopy. Detailed protocols are provided in the Supplementary Methods and Tables.
461 electroporated using the CM137 program. Following electroporation, the cells were kept […]

DCAF10 [3] = assay: Anti-GFP immunoprecipitation of Lyn-GFP with MS, DCAF10; assay type: binding, human; conditions: anti-GFP IP, NMT1/2 siRNA and control
Protocol: 494 induction using GFP-Trap magnetic agarose beads. Briefly, 10 µL of bead slurry per
495 reaction was equilibrated three times with ice-cold lysis buffer (75 mM HEPES pH 7.5,
497 supplemented with 1mM DTT, PhosSTOP, and Protease Inhibitor Cocktail). Then, 500
498 µL of each lysate sample (control, dox induction, and NMT1/2 knockdown with or
499 without dox induction) containing approximately 300 µg total protein, were added to
500 tubes containing the equilibrated beads. Samples were rotated end-over-end for 1.5–2 h
After incubation, the beads were washed twice with 500 µL of cold lysis buffer
502 and twice with 500 µL of cold lysis buffer lacking NP-40, glycerol, DTT, phosSTOP, and
503 Protease Inhibitor Cocktail. Finally, the immunoprecipitates were resuspended in 50 µL
504 of 8 M urea, incubated at 25°C for 30 min, and stored at -20°C prior to on-bead digestion
Each experimental condition was performed in
as §1
527 Samples (peptide pull-downs, IPs and high-pH fractionations) were separated on an
528 EASY-nLC 1200 HPLC system (Thermo Fisher Scientific, Waltham, MA, USA) using
529 in-house-packed 50-cm reversed-phase columns (75 cm diameter, 1.9 mm C18 ReproSil
530 particles, Dr. Maisch GmbH) (60°C at 300 nL/min flow rate with an 83 min gradient from […]
536 sec cycle time) (data points per peak = 6). Cycle times were calculated based on the […]

pY397 Lyn = assay: Phosphorylation of Lyn-GFP variants at pY397, Western blot (reviewers only); assay type: cell-based, human; conditions: preliminary experiment, unstimulated cells, three independent blots
From the text: distinct in term of phospho-tyrosine activity?
We agree that understanding the functional consequences of N-terminal acetylation versus myristoylation—particularly regarding kinase activity and localization—is among the most relevant questions and a key next step in this project. As an initial indication, we performed a preliminary experiment using full-length Lyn constructs (LynWT-GFP, LynG2A-GFP, and LynG2P-GFP) with or without NMT1/2 RNAi and probed the activating phospho-tyrosine site of Lyn (pY397). We observed marked […]
upon NMT1/2 knockdown specifically at the activating pY397 site, while global pY levels appeared to be largely unchanged in these unstimulated cells, […] (Figure 2 provided to reviewers only). […]
have not included them in the manuscript but provide them for the reviewers’ information only, as we are working on consequences for kinase activity and biological role. We plan to pursue a systematic analysis under stimulated conditions, quantifying pY patterns and localization changes to define how the N-terminal state affects SFK signaling output. […]
Fig. 2 for reviewers only. a) LynWT-GFP, LynG2A-GFP and LynG2P-GFP expressing cells were treated with NMT1/2 RNAi or left untreated and then blotted against anti-pY397 Lyn, pan-anti-pY and controls. b) Quantification of three independent blots. […]

Substance	DCAF10 binding (in words) (DCAF10 [1])	Level decrease following NMT1/2 KD ([2]; DLD-1, 72 h NMT1/2 siRNA, 24 h doxycycline 100 ng/mL, WB/vinculin, average, n = 3) [%]	Dependency on NMT1/2 and DCAF10 (in words) ([2]; DLD-1, 72 h siRNA)	Level increase upon combined NMT1/2 and DCAF10 KD ([2]; DLD-1, 72 h siRNA, WB/vinculin, n = 3) [%]	Interaction with DCAF10 (in words) (DCAF10 [3])	Decrease of pY397 phosphorylation upon NMT1/2 knockdown (pY397 Lyn)
GCIKSKGKDSKK [Ac-Lyn, Nt-peptide of Lyn (aa 1–10 + KKK-biotin), Nt-acetylated]	confirmed DCAF10 binding	–	–	–	–	–
Lyn^WT-GFP: doxycycline-inducible C-terminally GFP-fused Lyn in DLD-1 Lyn KO cells	–	21	remained dependent on NMT1/2 and DCAF10	41.7	significantly interacted with DCAF10 under both NMT1/2 siRNA and control conditions, with significant enrichment upon NMT1/2 KD	approximately 15%

Reference: article PMC12775124, “CUL4A-DDB1-DCAF10 is an N-recognin for N-terminally acetylated Src kinases” (Nature Communications, 2026)
